According to publication PMC7465344 (Pharmaceuticals, 2020):

Columns and labels:
hA2B AR = molecular target: T1, hA2B AR (Homo sapiens, UniProt P29275); assay: Inhibition of NECA stimulated adenylyl cyclase activity (cAMP assay) in CHO cells expressing hA2B receptor; assay type: cell-based; details: for inhibition at 10 µM: CHO, at 10 μM of tested compound, cAMP assay, read-out: hA2BAR percentage of inhibition (I%); for IC50: NECA stimulated cAMP, hA2B CHO cells, read-out: hA2BAR IC50 (potency in cAMP assay)
T1 construct: expressed in transfected cells; host or cells: CHO cells
T1 sequence (P29275 1-332): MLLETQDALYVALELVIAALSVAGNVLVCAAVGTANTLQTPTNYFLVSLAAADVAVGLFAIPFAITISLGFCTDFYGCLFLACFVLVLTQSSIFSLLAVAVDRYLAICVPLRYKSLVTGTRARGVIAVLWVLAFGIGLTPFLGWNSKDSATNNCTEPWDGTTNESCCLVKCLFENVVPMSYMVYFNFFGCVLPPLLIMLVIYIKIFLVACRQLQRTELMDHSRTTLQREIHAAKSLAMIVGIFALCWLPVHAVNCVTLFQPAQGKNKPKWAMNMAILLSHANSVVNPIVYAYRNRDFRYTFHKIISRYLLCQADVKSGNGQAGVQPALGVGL
Source text: At the end of the experiments, plates were read with the Perkin Elmer EnSight Multimode Plate Reader.

hA2A AR = hA2A AR (Homo sapiens, UniProt P29274); assay: Competition binding of [3H]ZM241385 to hA2A AR in CHO cell membranes
Chain of hA2A AR (P29274 whole entry): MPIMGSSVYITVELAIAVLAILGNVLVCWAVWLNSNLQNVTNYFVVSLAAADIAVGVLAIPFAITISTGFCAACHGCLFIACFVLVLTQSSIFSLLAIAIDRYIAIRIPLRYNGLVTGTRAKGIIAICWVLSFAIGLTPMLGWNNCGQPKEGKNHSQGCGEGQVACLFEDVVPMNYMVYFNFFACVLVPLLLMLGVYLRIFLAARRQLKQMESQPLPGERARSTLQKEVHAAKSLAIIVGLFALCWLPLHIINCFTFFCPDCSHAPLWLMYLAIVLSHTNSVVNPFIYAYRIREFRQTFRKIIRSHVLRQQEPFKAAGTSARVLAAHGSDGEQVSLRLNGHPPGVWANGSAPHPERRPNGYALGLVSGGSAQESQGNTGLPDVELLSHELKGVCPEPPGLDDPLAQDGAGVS
Description: (§1) For membrane preparation, the cells were washed with phosphate-buffered saline and scraped off T75 flasks in an ice-cold hypotonic buffer (5 mMTris-HCl, 1 mM EDTA, pH 7.4). The cell suspensions were homogenized with a Polytron, centrifuged for 30 min at 40,000× g at 4 °C and the resulting membrane pellets were used for competition binding experiments [44].
(§2) Non-specific binding was defined as binding in the presence of 1 μM DPCPX and was always <10% of the total binding [44]. […] Non-specific binding was defined as binding in the presence of 1 μM ABMECA and was always < 10% of the total binding [46]. Bound and free radioactivity were separated by filtering the assay mixture through Whatman GF/B glass fiber filters using a Brandel cell harvester (Brandel Instruments, Unterföhring, Germany).
(§3) The protein concentration was determined according to a Bio-Rad method with bovine albumin as a standard reference. […] Ki and IC50 values were calculated by the non-linear regression analysis using the equation for a sigmoid concentration-response curve (Graph-PAD Prism, San Diego, CA, USA).

hA1 AR = molecular target: T2, hA1 AR (Homo sapiens, UniProt P30542); assay: Competition binding of [3H]DPCPX to hA1 AR in CHO cell membranes
T2 sequence (P30542 1-326): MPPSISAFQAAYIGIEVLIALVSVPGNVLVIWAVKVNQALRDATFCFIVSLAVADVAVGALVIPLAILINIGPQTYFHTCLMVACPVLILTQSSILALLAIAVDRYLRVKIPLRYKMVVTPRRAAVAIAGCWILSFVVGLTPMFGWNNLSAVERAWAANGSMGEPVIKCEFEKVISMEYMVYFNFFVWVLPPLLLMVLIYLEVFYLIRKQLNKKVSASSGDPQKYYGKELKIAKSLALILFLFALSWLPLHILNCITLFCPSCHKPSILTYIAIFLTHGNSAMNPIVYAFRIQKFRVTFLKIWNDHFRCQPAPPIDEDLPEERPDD
Description: as §1, §2, §3

hA3 AR = molecular target: T3, hA3 AR (Homo sapiens, UniProt P0DMS8); assay: Competition binding of [125I]AB-MECA to hA3 AR in CHO cell membranes
T3 sequence (P0DMS8 1-318): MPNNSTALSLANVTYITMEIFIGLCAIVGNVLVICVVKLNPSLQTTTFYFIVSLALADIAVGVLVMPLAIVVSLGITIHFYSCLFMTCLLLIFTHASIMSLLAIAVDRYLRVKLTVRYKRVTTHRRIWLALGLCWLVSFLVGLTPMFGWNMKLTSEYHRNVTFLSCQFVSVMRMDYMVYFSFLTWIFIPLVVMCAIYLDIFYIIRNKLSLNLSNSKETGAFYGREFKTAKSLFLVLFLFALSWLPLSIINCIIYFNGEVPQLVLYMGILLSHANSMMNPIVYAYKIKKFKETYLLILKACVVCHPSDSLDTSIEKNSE
Description: as §1, §2, §3

Nc1nc(N2CCN(C(=O)c3ccco3)CC2)nc2sc(-c3ccco3)nc12 [compound 6, (4-(7-Amino-2-(furan-2-yl)thiazolo[5,4-d]pyrimidin-5-yl)piperazin-1-yl)(furan-2-yl)methanone]
inhibition at 10 µM (hA2B AR): 10%
IC50 (hA2B AR): > 10000 nM
melting point: 227 to 229 °C
Ki (hA2A AR): 137 ± 11 nM
Ki (hA1 AR): 2770 ± 249 nM
Ki (hA3 AR): 816 ± 74 nM

CN(C)CCN1CCN(c2nc(N)c3nc(-c4ccco4)sc3n2)CC1 [compound 7, 5-(4-(2-(Dimethylamino)ethyl)piperazin-1-yl)-2-(furan-2-yl)thiazolo[5,4-d]pyrimidin-7-amine]
inhibition at 10 µM (hA2B AR): 23%
IC50 (hA2B AR): > 10000 nM
melting point: 183 to 186 °C
Ki (hA2A AR): 29 ± 3 nM
Ki (hA1 AR): 345 ± 28 nM
Ki (hA3 AR): > 10000 nM
inhibition at 10 µM (hA3 AR; read-out: hA3AR percentage of inhibition (I%)): 34%

Nc1nc(N2CCN(Cc3ccccc3)CC2)nc2sc(-c3ccco3)nc12 [compound 3, 5-(4-Benzylpiperazin-1-yl)-2-(furan-2-yl)thiazolo[5,4-d]pyrimidin-7-amine]
inhibition at 10 µM (hA2B AR): 26%
melting point: 181 to 183 °C
Ki (hA2A AR): 58 ± 5 nM
Ki (hA1 AR): 180 ± 15 nM
hA1AR Ki (hA1 AR; displacement of [3H]DPCPX, CHO cells, mean ± SEM, n = 3–6): good affinities
Ki (hA3 AR): 868 ± 82 nM
